This is an account of results in patent US20100234372A1, “SUBSTITUTED 2-MERCAPTOQUINOLINE-3-CARBOXAMIDES AS KCNQ2/3 MODULATORS” (GRUNENTHAL GMBH, priority 2009, published 2010).

The target of one test is T1, KCNQ2/3 channels (Homo sapiens, UniProt O43525+O43526).
T1 construct: expressed in transfected cells; host or cells: CHO-K1 cells
Briefly: Fluorescence assay using a voltage-sensitive dye (fluorimetry). In kind it is cell-based. The settings on record: for EC50: CHO-K1 cells expressing KCNQ2/3 channels; for Emax at 1 µM: 50 μM retigabine = 100%, CHO-K1 cells expressing KCNQ2/3, read-out: Fluorimetry % efficacy at 1 μM (50 μM retigabine = 100%). In short, it runs like this:
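CHO-K1 cells expressing human KCNQ2/3 were loaded with membrane-potential dye in ES buffer (pH 7.4) for 45 min, then incubated with compound for 30 min at room temperature. Fluorescence (525/560 nm) before (F1) and at peak after KCl (92 mM final) (F2) yielded agonist activity versus buffer controls; EC50 calculated.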

The subject of another test is Male Sprague-Dawley rats. Briefly: Low-intensity tail flick in rats. In kind it is in vivo. The settings on record: po, rat. The text has this: The antinociceptive activity of the test substance against an acute noxic thermal stimulant was examined in the tail-flick test in rats using the method described by D′Amour and Smith (J. Pharm. Exp. Ther. 72, 74 79 (1941)). Male Sprague-Dawley rats weighing between 200 and 250 g were used (breeder: Janvier, Le Genest St. Isle, France). The animals were placed in special test compartments and the base of the tail was exposed to a focused light beam from an analgesia meter (model 2011, Rhema Labortechnik, Hofheim, Germany). 10 animals were used per group. Before administering a substance according to the invention, the tail-flick latency (time from switching on the light beam to the flick of the tail) was measured twice at an interval of five minutes and the average was defined as the control latency time. The intensity of the light beam was chosen so that the control latency time was 7 to 9 seconds.
The measurement of the tail-flick latency was then repeated 10, 20, 30 and 60 minutes after peroral administration of the substance. The antinociceptive action of the test substance was determined as the increase in the tail-flick latency time using the following formula:
where T0=control latency time before administration of the substance, T1=latency time after administration of the substance, T2=maximum exposure time to the light beam (30 seconds), MPE=maximum possible effect.
Analysis of variance (repeated measures ANOVA) was used to test for statistically significant differences between the substance and vehicle group. The significance level was set at ≦0.05.

Where [1] appears, read: p.o., MPE, read-out: Low-intensity tail flick rat p.o. % effect (dose [mg/kg]).

Usually EC50 stands for the concentration that produces a half-maximal response. Read a low EC50 as greater potency. Regarding `CCSc1nc2cc(C(F)(F)F)ccc2c(C)c1C(=O)NCc1ccc(F)cc1` [compound 77], at KCNQ2/3 channels, the EC50 was determined as 105 nM and the Emax at 1 µM amounted to 137%. Also, the inhibition in vivo at 10 mg/kg in the test on Male Sprague-Dawley rats (setting [1]) was determined as 37%.
As usually defined, the ED50 is the midpoint of the dose-response relation. `Cc1c(C(=O)NCc2cccs2)c(SC(C)(C)C)nc2cc(C(F)(F)F)ccc12` [compound 89]: at KCNQ2/3 channels, the EC50 came to 64 nM and the Emax at 1 µM amounted to 220%. This molecule also came in with an ED50 with Male Sprague-Dawley rats of 2.7 mg/kg.
Regarding `Cc1c(C(=O)NCc2ccc(F)cc2)c(SC(C)(C)C)nc2cc(C(F)(F)F)ccc12` [compound 94], at KCNQ2/3 channels, the response was half-maximal at 54 nM (EC50) and the Emax at 1 µM came out at 162%. Moreover, in the test on Male Sprague-Dawley rats (p.o., dose 4.64 mg/kg, MPE, read-out: Low-intensity tail flick rat p.o. % effect (dose [mg/kg])), the inhibition in vivo at 4.64 mg/kg was 71%.
In the case of `CCSc1nc2cc(F)c(F)cc2c(C)c1C(=O)NCc1ccc(F)cc1` [compound 109], on KCNQ2/3 channels, the EC50 worked out at 187 nM and the Emax at 1 µM was 144%. In addition, the inhibition in vivo at 10 mg/kg with Male Sprague-Dawley rats (setting [1]) came out at 7%.
As for `CCSc1nc2cc(C(F)(F)F)ccc2c(C)c1C(=O)NCc1ccccc1O` [compound 112, 2-Ethylsulfanyl-N-[(2-hydroxyphenyl)-methyl]-4-methyl-7-(trifluoromethyl)-quinoline-3-carboxamide], on KCNQ2/3 channels, the EC50 worked out at 130 nM and the Emax at 1 µM is 211%. Further, the inhibition in vivo at 10 mg/kg in the test on Male Sprague-Dawley rats (setting [1]) came out at 17%.
